Data set [1] concerns herpes simplex type 1 (KOS strain). Put plainly: Plaque reduction assay in Vero cells infected with herpes simplex type 1 (KOS strain). Format: cell-based. The conditions noted are these: single agent; for Average Plaque Count: controls = 480. As to the method:
The antiviral activity was determined using a plaque reduction assay. Petri plates were seeded with Vero cells which were then allowed to grow to confluency. […] The inhibitors, either alone or in the indicated combinations, were dissolved to give the indicated concentrations in minimal essential medium containing 2% heat inactivated fetal calf serum and 0.5% human immune serum globulin. One hour after infection the solutions (10 ml per plate) were added to the cultures. Three days later the cultures were foramlin-fixed and stained with crystal violet, and the plaques were counted.

A short description of data set [2]: Acute toxicity (LD50), mice, oral. The note with it: mouse, in vivo. An excerpt: (§1) The LD50 values for acyclovir, dilazep and dipyridamole, referred to above are as follows: […]
A short description of data set [3]: Acute toxicity (LD50), rats, oral. The conditions noted are these: rat, in vivo.
Source text: as §1

Where [4] appears, read: Human alphaherpesvirus 1, Vero, Conc. 1.0 μM.
[5] abbreviates: Human alphaherpesvirus 1, Vero, Conc. 5.0 μM.

By inhibition is commonly meant the share of the control response that was lost under treatment. What is called LD50 is the dose expected to kill half of the subjects tested. High values mean a less toxic substance, low ones a more toxic substance. For the molecule `Nc1nc2c(ncn2COCCO)c(=O)[nH]1` [ACV, 9-[(2-hydroxyethoxy)methyl]guanine], the “Average Plaque Count” value turned out to be 279.5 in data set [1] (Conc. 1.0 μM), 133.5 in data set [1] (Conc. 2.5 μM) and 29.5 in data set [1] (Conc. 5.0 μM). Besides, in data set [1] (setting [4]), the inhibition at 1 µM is 41.8%. For the same molecule, in data set [1] (Human alphaherpesvirus 1, Vero, Conc. 2.5 μM), the inhibition at 2.5 µM worked out at 72.3%. Moreover, the inhibition at 5 µM in data set [1] (setting [5]) amounted to 93.8%. In data set [2] (mice oral), the LD50 was above 10000 mg/kg.

On to `O=[N+]([O-])c1ccc(CSc2ncnc3c2ncn3[C@@H]2O[C@H](CO)[C@@H](O)[C@H]2O)cc1` [Compound A, 6-[(4-nitrobenzyl)thio]-9-(β-D-ribofuranosyl)purine], for which, in data set [1] (Conc. 2.0 μM), the “Average Plaque Count” value turned out to be 484.0. In data set [1] (Human alphaherpesvirus 1, Vero, Conc. 2.0 μM), the inhibition at 2 µM was 0%.

As for `COc1cc(C(=O)OCCCN2CCCN(CCCOC(=O)c3cc(OC)c(OC)c(OC)c3)CC2)cc(OC)c1OC` [Dilazep], in data set [1] (Conc. 1.0 μM), the “Average Plaque Count” value stood at 442.0. Moreover, in data set [1] (setting [4]), the inhibition at 1 µM was 8%. In data set [2] (male mice, oral), this molecule gave an LD50 of 3740 mg/kg.

For the molecule `OCCN(CCO)c1nc(N2CCCCC2)c2nc(N(CCO)CCO)nc(N3CCCCC3)c2n1` [Dipyridamole], the “Average Plaque Count” value in data set [1] (Conc. 5.0 μM) is given as 474.0. Further, the inhibition at 5 µM in data set [1] (setting [5]) was found to be 1%. Further, in data set [3], the LD50 is 8400 mg/kg.

For the origin of these results see patent US4897394A, “Antiviral combinations” (Burroughs Wellcome CO., priority 1986, dated 1990).
